Article PMC5412445, “ZeGlobalTox: An Innovative Approach to Address Organ Drug Toxicity Using Zebrafish” (International Journal of Molecular Sciences, 2017)

Legend:
zebrafish larvae liver = experiment: ZeGlobalTox hepatotoxicity: Oil Red O staining (steatosis and yolk lipid accumulation); conditions: 132 hpf, 36 h drug incubation at NOEC (paracetamol 2600 µM), DMSO 22.22%
Description: In order to assess drugs producing steatosis and yolk lipid accumulation, and subsequent to the RFP filtered images being acquired, zebrafish larvae were stained with Oil Red O. Larvae and were sorted into steatosis positive or negative, yolk lipid accumulation, or both (see materials and methods).
For the ZeGlobalTox assay, fertilized Tg(cmlc2:GFP; fabp10:RFP; ela31:EGFP) zebrafish embryos were collected in E3 medium (5 mM NaCl, 0.17 mM KCl, 0.33 mM CaCl2, 0.33 mM, MgSO4) in Petri dishes. At 3, 24, and 48 hpf, dishes were observed and all not fertilized, abnormal, or coagulated eggs were discarded. At 96 hpf, 20 larvae per condition were incubated with the NOECs from the different drugs and allowed to develop until 132 hpf at 28.5 °C.
After 36 h of drug incubation (132 hpf), embryos are fixed in 4% paraformaldehyde (158127-500G, Sigma-Aldrich, Saint Louis, MO, USA) for 2–4 h at room temperature (RT) and then are 3× washed with PBS.
In order to detect the presence of steatosis and yolk lipid retention, zebrafish larvae were stained with Oil Red O (O0625-25G, Sigma-Aldrich, Saint Louis, MO, USA) as described in [77]. Briefly, the skin pigment from fixed larvae is removed by incubating with bleaching solution (for 10 mL: 6 mL H2O, 0.25 mL 20× SSC, 0.5 mL formamide, 3.3 mL H2O2) during 20 min at RT. Then, the larvae are 5× washed with PBS. Bleached embryos are first submerged in 85% Propylene glycol (PG) (134368-1L, Sigma-Aldrich, Saint Louis, MO, USA) for 10 min and then in 100% PG for another 10 min before staining them with Oil Red O 0.5% in 100% PG (overnight, at RT and with gentle rocking). Oil Red O stained embryos are washed in 100% PG for 30 min, 50 min in 85% PG, and 40 min in 85% PG with an equal volume of PBS. Finally, embryos are washed 1× with PBS before adding 80% glycerol (G7757-500ML, Sigma-Aldrich, Saint Louis, MO, USA). Bright field images are taken to detect both steatosis and yolk lipid accumulation. […] Yolk lipid retention is considered positive when a red strong signal is observed in the yolk area (Figure 5F).
DMSO 1% treated larvae were used as the negative control group.

humans = conditions: known toxicity in humans, ref TOXNET (HSDB), Side effects (EMBL), drugs.com, cited from earlier work
zebrafish larvae [1] = tested on: zebrafish larvae; parameters: method as in PMID 16408054, PMID 22744888; conditions: ref [50],[57]; cited from earlier work
zebrafish larvae [2] = experiment: ZeGlobalTox neurotoxicity evaluation (locomotion, light/dark trial); format: in vivo, zebrafish (Danio rerio); conditions: 120 hpf, drug from 96 hpf at NOEC (MPTP 100 µM, paracetamol 2600 µM)
Description: By 5 dpf, zebrafish larvae perform spontaneous swimming and their visual system is fully developed. Therefore, behavioural experiments were performed from this time point (Figure 4A). Deviations in total distance moved, in response to photo-visual stimulation, were analysed as a direct measurement of neurotoxicity. Thus, drugs increasing or decreasing total distance moved when compared to the DMSO-only group were considered neurotoxic. As the positive neurotoxic control we used MPTP, which has been identified as a neurotoxic drug in humans and zebrafish.
Immediately after heart video acquisition, larvae are washed with E3 medium to remove tricaine methanesulfonate from the solution. Fresh drug solution is added and the larvae are transferred individually in a volume of 150 µL to 96 well plates.
Neurotoxicity is analysed at 120 hpf by locomotion assessment using the EthoVision XT 11.5 software and the DanioVision device from Noldus Information Technologies, Wageningen, The Netherlands. This closed system consists of a camera placed above a chamber with circulating water and a temperature sensor set at 28 °C. The 96-well plates are placed in the chamber, which can then be illuminated with white light using the software. Larvae are then left for 20 min under these conditions and with the lights on to help their acclimation. Finally, larvae locomotion is measured during 50′ under the following light/dark conditions: 10′ darkness-10′ Light-10′ darkness-10′ Light-10′ darkness. Total distance moved (in mm) is acquired under this light/dark trial. Due to circadian rhythms, all locomotion assays were performed from 13:00 pm onwards to ensure steady activity of the zebrafish.
Neurotoxicity is assessed by comparing locomotion differences among the tested compounds (solved in DMSO) and the negative control group (DMSO 1%-only).

For `CC(=O)Nc1ccc(O)cc1` [Acetaminophen], the “Percentage of larvae presenting yolk lipid retention” value (zebrafish larvae liver) is listed as 60%, the “Neurotoxicity (toxicity in humans)” value (humans; [22],[30],[31],[34],[35]) is listed as “Toxic ^2,3” and the “Cardiotoxicity (toxicity in humans)” value (humans; ema.europa, [19],[20],[21]) is listed as “Toxic ^1,2,3”. The “Hepatotoxicity (toxicity in humans)” value (humans; ema.europa, [24],[26],[27],[32],[33]) was “Toxic ^1,2,3 [24]”, the “Impact on the heart rate in zebrafish larvae” value (zebrafish larvae [1]) was “no impact” and the “Motility (total distance moved) compared to DMSO” value (zebrafish larvae [2]) was “Decreased motility”.
